Results reported in patent US6492378B1, “Substituted isoquinoline derivatives and their use as anticonvulsivants” (SmithKline Beecham p.l.c., priority 1998, dated 2002).

System: maximal electroshock seizure (MEST) threshold in rodents
Assay: MEST test (maximal electroshock seizure threshold)
Assay type: in vivo
Settings: 2 mg/kg p.o. at 2 h post-dose
Protocol: 2. MEST Test The maximal electroshock seizure (MEST) threshold test in rodents is particularly sensitive for detecting potential anticonvulsant properties^1. In this model, anticonvulsant agents elevate the threshold to electrically-induced seizures whilst proconvulsants lower the seizure threshold. Method for Mouse Model Mice (naive male, Charles River, U.K. CD-1 strain, 25-30 g) are randomly assigned to groups of 10-20 and dosed orally or intraperitoneally at a dose volume of 10 ml/kg with various doses of compound (0.3-300 mg/kg) or vehicle. Mice are then subjected at 30 or 60 min post dose to a single electroshock (0.1 sec, 50 Hz, sine wave form) administered via corneal electrodes. The mean current and standard error required to induce a tonic seizure in 50% (CC50) of the mice in a particular treatment group is determined by the ‘up and down’ method of Dixon and Mood (1948)^2. Statistical comparisons between vehicle- and drug-treated groups are made using the method of Litchfield and Wilcoxon (1949)^3. In control animals the CC50 is usually 14-18 mA. […] If a tonic convulsion does occur, then the current is decreased, and so on until all the animals in the group have been tested. Studies are carried out using a Hugo Sachs Electronik Constant Current Shock Generator with totally variable control of shock level from 0 to 300 mA and steps of 2 mA are usually used. Method for Rat Model The threshold for maximal (tonic hindlimb extension) electroshock seizures in male rats (Sprague Dawley, 80-150 g, 6 weeks old) was determined by a Hugo Sachs Electronik stimulator which delivered a constant current (0.3 sec duration; from 1-300 mA in steps of 5-20 mA). The procedure is similar to that outlined above for mouse and full details are as published by Upton et al,.^4 The percentage increase or decrease in CC50 for each group compared to the control is calculated. Drugs are suspended in 1% methyl cellulose.

Row | SMILES | % increases in seizure threshold
1 | COc1ccc(C(=O)Nc2ccc3c(c2)CN(C)CC3(C)C)cc1Br [Example E15, N-(2,4,4-Trimethyl-1,2,3,4-tetrahydroisoquinolin-7-yl)-3-bromo-4-methoxybenzamide] | 263%
2 | COc1ccc(C(=O)Nc2ccc3c(c2)CN(C)CC3(C)C)cc1I [Example E17, N-(2,4,4-Trimethyl-1,2,3,4-tetrahydroisoquinolin-7-yl)-3-iodo-4-methoxybenzamide] | 314%
3 | COc1cc(OC(C)C)c(Cl)cc1C(=O)Nc1cccc2c1C(C)(C)CN(C)C2 [Example E29, N-(2,4,4-Trimethyl-1,2,3,4-tetrahydroisoquinolin-5-yl)-5-chloro-2-methoxy-4-iso-propyloxybenzamide] | 310%
4 | COc1cc(C(C)C)c(C(F)(F)F)cc1C(=O)Nc1cccc2c1C(C)(C)CN(C)C2 [Example E34, N-(2,4,4-Trimethyl-1,2,3,4-tetrahydroisoquinolin-5-yl)-2-methoxy-4-iso-propyl-5-trifluoromethylbenzamide] | 280%
5 | CCc1c(NC(=O)c2ccc(OC(C)C)c(C(C)=O)c2)ccc2c1CN(C)CC2(C)C [Example E48, N-(8-Ethyl-2,4,4-trimethyl-1,2,3,4-tetrahydroisoquinolin-7-yl)-3-acetyl-4-iso-propyloxybenzamide] | 240%
6 | COc1ccc(C(=O)Nc2ccc3c(c2)CN(C)C(C)(C)C3)cc1C(F)(F)F [Example E69, N-(2,3,3-Trimethyl-1,2,3,4-tetrahydroisoquinolin-7-yl)4-methoxy-3-trifluoromethylbenzamide] | 340%
